Assay [1] concerns writhing syndrome induced by acetic acid in mice. As to the kind of experiment: Test 2: writhing syndrome induced by acetic acid in mice (analgesic activity). Format: in vivo, male ddY mice. The conditions noted are these: Mus musculus. As to the method: Writhing syndrome induced by acetic acid in mice Ten male ddY mice were used per group. Writhing syndrome was produced by an intraperitoneal injection of 20 ml/kg of 0.6% acetic acid in mice. The animals were observed from 3 to 13 minutes after acetic acid injection, and a total number of writhing episodes was recorded. The drugs were given orally 1 hour before acetic acid injection. The frequency of writhing in the treated animals was compared with that in the control animals.
Background: An intraperitoneal irritant provokes the stretching counted in writhing tests.

For assay [2], the system named is pyrexia induced by brewer's yeast in rats. Description: Test 3: anti-pyretic activity, brewer's yeast-induced pyrexia in rats. Format: in vivo, male Sprague-Dawley rats. The conditions noted are these: Rattus norvegicus, oral. Here is the method: Anti-pyretic activity Ten male Sprague-Dawley rats were used per group. Pyrexia was induced by SC injection of 10 ml/kg of 5% brewer's yeast suspension. The drugs were given orally […] after yeast injection. Rectal temperature was measured 1 and 2 hours after administration of drugs, and the difference of rectal temperature from that before yeast injection was calculated.

The test system of assay [3] is inflammatory hyperalgesia induced by brewer's yeast in rats. As to the kind of experiment: Test 5: inflammatory hyperalgesia induced by brewer's yeast in rats (analgesic activity). Format: in vivo, male Sprague Dawley rats. As to the method:
Inflammatory hyperalgesia induced by brewer's yeast in rats
Ten male Sprague Dawley rats were used per group. 0.1 Ml of 5% brewer's yeast suspended in 0.5% methylcellulose was injected into the right hind paw, The pain threshold was determined 3 hours after yeast injection, by applying pressure to the foot and reading the pressure at which the rat withdrew the foot.
The drugs were given orally 2 hours after yeast infection. The pain threshold in the treated animals was compared with that in the control animals.

Setting [4] is: oral, 1 hour before acetic acid injection, number of writhing episodes 3 to 13 minutes after, read-out: ED50.
[5] abbreviates: rectal temperature 1 hour after administration, read-out: ED50 (1 hr).
The mark [6] stands for this setting: rectal temperature 2 hours after administration, read-out: ED50 (2 hr).

Usually ED50 stands for the dose that gives a 50% effect, or the effect in half of the subjects.

Where two headings read alike, the source gives them in different places.

For `CC(=O)c1ccc(NS(C)(=O)=O)c(Oc2ccc(F)cc2F)c1` [Example 1, 4'-acetyl-2'-(2,4-difluorophenoxy)methanesulfonanilide], the ED50 in assay [1] (setting [4]) amounted to 14 mg/kg; in assay [2] (setting [5]), 10 mg/kg; in assay [2] (setting [6]), 6.8 mg/kg.
For `CS(=O)(=O)Nc1ccc(C#N)cc1Oc1ccc(F)cc1F` [Example 3, 4'-Cyano-2'-(2,4-difluorophenoxy)methanesulfonanilide], the ED50 in assay [1] (setting [4]) was determined as 2.4 mg/kg.
Consider `CC(=NNC(N)=O)c1ccc(NS(C)(=O)=O)c(Oc2ccc(F)cc2F)c1` [Example 40, 3'-(2,4-difluorophenoxy)-4'-methanesulfonamidoacetophenone semicarbazone], for which the ED50 in assay [1] (setting [4]) came out at 18 mg/kg.
The same measure, in the same setting: to `Cc1cc(NS(C)(=O)=O)c(Oc2ccc(F)cc2F)cc1C#N` [Example 20, 4'-Cyano-2'-(2,4-difluorophenoxy)-5'-methylmethanesulfonanilide] belongs 55.8 mg/kg.
On to `COc1ccc2c(c1)c(CC(=O)O)c(C)n2C(=O)c1ccc(Cl)cc1` [Indomethacin, reference compound], for which the ED50 stood at 1.6 mg/kg in assay [1] (po), 4.6 mg/kg in assay [2] (setting [5]) and 2.6 mg/kg in assay [2] (setting [6]). Further, the ED30 in assay [3] (oral, 2 hours after yeast injection, pain threshold 3 hours after yeast injection, read-out: ED30) stood at 5.1 mg/kg.
Compound `CS(=O)(=O)Nc1ccc(C#N)cc1Oc1ccc(F)cc1F.[Na]` [Example 73, 4'-cyano-2'-(2,4-difluorophenoxy)methanesulfonanilide sodium salt] registered an ED30 in assay [3] (po) of 1.8 mg/kg.
`CC(=O)c1ccc(NS(C)(=O)=O)c(Oc2ccc(F)cc2Cl)c1` [Example 25, 4'-Acetyl-2'-(2-chloro-4-fluorophenoxy)methanesulfonanilide]: the ED50 in assay [1] (setting [4]) is 9.6 mg/kg.

The values above are taken from patent publication US4866091A, “Alkanesulfonanilide derivatives, processes for preparation thereof and pharmaceutical composition comprising the same” (Fujisawa Pharmaceutical Co., Ltd., priority 1986, dated 1989).
